The record followed here is PMC7594047, “Synthesis of a New Class of Spirooxindole–Benzo[b]Thiophene-Based Molecules as Acetylcholinesterase Inhibitors” (Molecules, 2020).

The structures appear in SMILES notation. Where two headings read alike, the source gives them in different places.

This experiment deals with T1, acetylcholinesterase enzyme from electric eel (Electrophorus electricus, UniProt O42275).
T1 construct: purchased Sigma-Aldrich CAS Number 9000-81-1 (catalogue number not given)
Nature of the experiment: Acetylcholinesterase (AChE) inhibitory assay (DTNB/acetylthiocholine iodide, absorbance at 412 nm). The format is biochemical. Conditions: for inhibition at 1.56 µg/mL: Conc 1.56 ug/ml; for inhibition at 3.125 µg/mL: Conc 3.125 ug/ml; for inhibition at 6.25 µg/mL: Conc 6.25 ug/ml; for inhibition at 12.5 µg/mL: Conc 12.5 ug/ml; for inhibition at 25 µg/mL: Conc 25 ug/ml; for inhibition at 50 µg/mL: Conc 50 ug/ml. The method, then: The in vitro cholinesterase inhibitory activity of the 14 synthesized spiro-oxindole derivatives (IIa–n) were evaluated. […] Galantamine was used as a positive control for comparison.
Acetylcholinesterase (AChE) inhibitory assay.
140 μL of 0.1 M sodium phosphate buffer of pH 8 was first added to a 96-wells microplate followed by 20 μL of test samples and 20 μL of 0.09 units/mL acetylcholinesterase enzyme from electric eel (Sigma-Aldrich, CAS Number 9000-81-1). After 15 min of incubation at 25 °C, 10 μL of 10 mM 5,5′-dithiobis-2-nitrobenzoic acid (DTNB, Sigma-Aldrich, CAS Number 69-78-3) was added into each well followed by 10 μL of 14 mM acetylthiocholine iodide (Sigma-Aldrich, CAS Number 1866-15-5). Thirty min after the initiation of enzymatic reaction, absorbance of the colored end-product was measured using StatFax-2100 microplate reader (Awareness Technology, Inc., USA) at 412 nm. Each test was conducted in triplicates. Test samples were prepared in DMSO at an initial concentration of 1 mg/mL (1000 ppm).
The concentration of DMSO in final reaction mixture was 1%.
The initial screening was carried out at 50 μg/mL of test samples in 1% DMSO. Absorbance of the test samples was corrected by subtracting the absorbance of their respective blank. Percentage enzyme inhibition is calculated using the following formula Percentage of inhibition = Absorbance of control - […]

The mark [1] stands for this setting: read-out: IC50 value against AChE.
[2] abbreviates: supplement, six concentrations 1.56-50 μg/mL, read-out: IC50 (AchE inhibition) (converted).

T1 sequence (O42275 24-633): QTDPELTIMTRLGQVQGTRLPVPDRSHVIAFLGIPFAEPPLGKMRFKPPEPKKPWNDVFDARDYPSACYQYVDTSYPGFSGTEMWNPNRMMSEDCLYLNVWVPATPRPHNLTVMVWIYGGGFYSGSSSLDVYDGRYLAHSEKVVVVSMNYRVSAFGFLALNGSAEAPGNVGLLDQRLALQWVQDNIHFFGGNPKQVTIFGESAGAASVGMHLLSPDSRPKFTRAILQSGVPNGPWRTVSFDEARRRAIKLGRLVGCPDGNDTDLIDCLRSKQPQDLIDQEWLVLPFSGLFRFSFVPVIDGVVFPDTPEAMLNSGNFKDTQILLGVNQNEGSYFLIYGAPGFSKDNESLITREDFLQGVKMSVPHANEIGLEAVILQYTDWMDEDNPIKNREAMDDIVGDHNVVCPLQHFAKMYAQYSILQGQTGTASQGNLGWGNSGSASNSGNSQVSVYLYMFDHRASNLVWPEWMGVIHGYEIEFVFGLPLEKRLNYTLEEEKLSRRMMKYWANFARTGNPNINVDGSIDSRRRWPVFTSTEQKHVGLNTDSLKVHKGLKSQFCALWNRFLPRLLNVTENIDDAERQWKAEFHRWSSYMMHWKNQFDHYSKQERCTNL

The molecule `O=C(c1ccccc1)C1C(c2cc3ccccc3s2)C2CSCN2[C@@]12C(=O)Nc1ccc(Cl)cc12` (stereo partly drawn) [IIa, (3S)-7′-(Benzo[b]thiophen-2-yl)-6′-benzoyl-5-chloro-3′,6′,7′,7a’-tetrahydro-1′H-spiro[indoline-3,5′-pyrrolo[1,2-c]thiazol]-2-one] gave an inhibition at 1.56 µg/mL of 1.68%, an inhibition at 3.125 µg/mL of 6.58%, an inhibition at 6.25 µg/mL of 14.4% and an inhibition at 12.5 µg/mL of 27.7%. The molecule further returned an inhibition at 25 µg/mL of 39% and an inhibition at 50 µg/mL of 50.4%. Also, the half-maximal inhibitory concentration (IC50) under setting [1] is more than 70 µM. The IC50 under setting [2] is 85.6 µM.
In the case of `O=C(c1ccccc1)C1C(c2cc3ccccc3s2)C2CSCN2[C@@]12C(=O)Nc1ccccc12` (stereo partly drawn) [IIb, (3S)-7′-(Benzo[b]thiophen-2-yl)-6′-benzoyl-3′,6′,7′,7a’-tetrahydro-1′H-spiro[indoline-3,5′-pyrrolo[1,2-c]thiazol]-2-one], the inhibition at 1.56 µg/mL was determined as 2.76%, at 3.125 µg/mL the inhibition was 8.12%, the inhibition at 6.25 µg/mL came out at 16.2% and 12.5 µg/mL produced 25.6% inhibition. The molecule further displayed an inhibition at 25 µg/mL of 40.9% and an inhibition at 50 µg/mL of 51.5%. Moreover, under setting [1], the concentration for half-maximal inhibition (IC50) is more than 70 µM. In addition, the IC50 under setting [2] is 88.4 µM.
`O=C(c1ccccc1)C1C(c2cc3ccccc3s2)C2C3CCCCC3CN2[C@@]12C(=O)Nc1ccc(Cl)cc12` (stereo partly drawn) [IIc, (3S)-1′-(Benzo[b]thiophen-2-yl)-2′-benzoyl-5-chloro-1′,2′,5′,5a’,6′,7′,8′,9′,9a’,9b’-decahydrospiro[indoline-3,3′-pyrrolo[2,1-a]isoindol]-2-one] yielded an inhibition at 1.56 µg/mL of 13.9%, an inhibition at 3.125 µg/mL of 29.9%, an inhibition at 6.25 µg/mL of 43.5% and an inhibition at 12.5 µg/mL of 54.5%. The inhibition at 25 µg/mL came to 61.6% and 50 µg/mL produced 70.3% inhibition. The 50% inhibitory concentration (IC50) under setting [2] is 20.8 µM.
Take `O=C(c1ccc(Cl)cc1)C1C(c2cc3ccccc3s2)C2CSCN2[C@@]12C(=O)Nc1ccc(Cl)cc12` (stereo partly drawn) [IId, (3S)-7′-(Benzo[b]thiophen-2-yl)-5-chloro-6′-(4-chlorobenzoyl)-3′,6′,7′,7a’-tetrahydro-1′H-spiro[indoline-3,5′-pyrrolo[1,2-c]thiazol]-2-one]: the inhibition at 1.56 µg/mL stood at 19.8%, the inhibition at 3.125 µg/mL stood at 24.8%, 6.25 µg/mL produced 29.7% inhibition and the inhibition at 12.5 µg/mL was determined as 41.5%. For the same molecule, the inhibition at 25 µg/mL is 53.3% and 50 µg/mL produced 64% inhibition. Also, the half-maximal inhibitory concentration (IC50) under setting [1] was determined as 37.7 µM. For the same molecule, the IC50 under setting [2] was 37.7 µM.
For the molecule `O=C(c1ccc(Cl)cc1)C1C(c2cc3ccccc3s2)C2CSCN2[C@@]12C(=O)Nc1ccccc12` (stereo partly drawn) [IIe, (3S)-7′-(Benzo[b]thiophen-2-yl)-6′-(4-chlorobenzoyl)-3′,6′,7′,7a’-tetrahydro-1′H-spiro[indoline-3,5′-pyrrolo[1,2-c]thiazol]-2-one], the inhibition at 1.56 µg/mL amounted to 18.2%, the inhibition at 3.125 µg/mL was 23.3%, the inhibition at 6.25 µg/mL was 27.7% and the inhibition at 12.5 µg/mL worked out at 40.3%. The inhibition at 25 µg/mL was 50.5% and 50 µg/mL produced 58.6% inhibition. The half-maximal inhibitory concentration (IC50) under setting [1] came out at 50.6 µM. Besides, the IC50 under setting [2] was 50.6 µM.
For `O=C(c1ccc(Cl)cc1)C1C(c2cc3ccccc3s2)C2C3CCCCC3CN2[C@@]12C(=O)Nc1ccc(Cl)cc12` (stereo partly drawn) [IIf, (3S)-1′-(Benzo[b]thiophen-2-yl)-5-chloro-2′-(4-chlorobenzoyl)-1′,2′,5′,5a’,6′,7′,8′,9′,9a’,9b’-decahydrospiro[indoline-3,3′-pyrrolo[2,1-a]isoindol]-2-one], the inhibition at 1.56 µg/mL is 16.1%, the inhibition at 3.125 µg/mL turned out to be 24.4%, the inhibition at 6.25 µg/mL worked out at 34.9% and the inhibition at 12.5 µg/mL was 43%. The inhibition at 25 µg/mL was determined as 53% and the inhibition at 50 µg/mL came out at 63.1%. Further, under setting [1], the half-inhibitory concentration (IC50) was found to be 34 µM. For the same molecule, the IC50 under setting [2] was 34 µM.
As to `O=C(c1ccc(F)cc1)C1C(c2cc3ccccc3s2)C2CSCN2[C@@]12C(=O)Nc1ccc(Cl)cc12` (stereo partly drawn) [IIg, (3S)-7′-(Benzo[b]thiophen-2-yl)-5-chloro-6′-(4-fluorobenzoyl)-3′,6′,7′,7a’-tetrahydro-1′H-spiro[indoline-3,5′-pyrrolo[1,2-c]thiazol]-2-one], the inhibition at 1.56 µg/mL is 23.4%, the inhibition at 3.125 µg/mL came out at 30.3%, 6.25 µg/mL produced 41.5% inhibition and 12.5 µg/mL produced 51.8% inhibition. Further, the inhibition at 25 µg/mL stood at 59% and the inhibition at 50 µg/mL is 68.3%. Also, the half-maximal inhibitory concentration (IC50) under setting [1] is 23 µM. The IC50 under setting [2] was 23 µM.
Molecule `O=C(c1ccc(F)cc1)C1C(c2cc3ccccc3s2)C2C3CCCCC3CN2[C@@]12C(=O)Nc1ccc(Cl)cc12` (stereo partly drawn) [IIh, (3S)-1′-(Benzo[b]thiophen-2-yl)-5-chloro-2′-(4-fluorobenzoyl)-1′,2′,5′,5a’,6′,7′,8′,9′,9a’,9b’-decahydrospiro[indoline-3,3′-pyrrolo[2,1-a]isoindol]-2-one] registered an inhibition at 1.56 µg/mL of 0.46%, an inhibition at 3.125 µg/mL of 6.58%, an inhibition at 6.25 µg/mL of 10.7% and an inhibition at 12.5 µg/mL of 23.3%. Further, the inhibition at 25 µg/mL is 27.4% and 50 µg/mL produced 43% inhibition. Also, the IC50 (Table 1, read-out: AChE Inhibition IC50) is 122 µM. Further, the IC50 under setting [2] was 122 µM.
`O=C(c1ccc(C(F)(F)F)cc1)C1C(c2cc3ccccc3s2)C2CSCN2[C@@]12C(=O)Nc1ccc(Cl)cc12` (stereo partly drawn) [IIi, (3S)-7′-(Benzo[b]thiophen-2-yl)-5-chloro-6′-(4-(trifluoromethyl)benzoyl)-3′,6′,7′,7a’-tetrahydro-1′H-spiro[indoline-3,5′-pyrrolo[1,2-c]thiazol]-2-one] came in with an inhibition at 1.56 µg/mL of 1.23%, an inhibition at 3.125 µg/mL of 7.35%, an inhibition at 6.25 µg/mL of 12.7% and an inhibition at 12.5 µg/mL of 26.2%. This molecule also gave an inhibition at 25 µg/mL of 38.7% and an inhibition at 50 µg/mL of 52.4%. For the same molecule, the IC50 under setting [2] is 72.4 µM.
Molecule `O=C(c1ccc(C(F)(F)F)cc1)C1C(c2cc3ccccc3s2)C2CSCN2[C@@]12C(=O)Nc1ccccc12` (stereo partly drawn) [IIj, (3S)-7′-(Benzo[b]thiophen-2-yl)-6′-(4-(trifluoromethyl)benzoyl)-3′,6′,7′,7a’-tetrahydro-1′H-spiro[indoline-3,5′-pyrrolo[1,2-c]thiazol]-2-one] gave an inhibition at 1.56 µg/mL of 1.68%, an inhibition at 3.125 µg/mL of 6.43%, an inhibition at 6.25 µg/mL of 12.2% and an inhibition at 12.5 µg/mL of 29.4%. Further, the inhibition at 25 µg/mL worked out at 41% and the inhibition at 50 µg/mL came to 50.7%. Besides, the IC50 under setting [2] is 76 µM.
In turn, `O=C(c1ccc(C(F)(F)F)cc1)C1C(c2cc3ccccc3s2)C2C3CCCCC3CN2[C@@]12C(=O)Nc1ccc(Cl)cc12` (stereo partly drawn) [IIk, (3S)-1′-(Benzo[b]thiophen-2-yl)-5-chloro-2′-(4-(trifluoromethyl)benzoyl)-1′,2′,5′,5a’,6′,7′,8′,9′,9a’,9b’-decahydrospiro[indoline-3,3′-pyrrolo[2,1-a]isoindol]-2-one] returned an inhibition at 1.56 µg/mL of 9.95%, an inhibition at 3.125 µg/mL of 24.8%, an inhibition at 6.25 µg/mL of 32.8% and an inhibition at 12.5 µg/mL of 41.8%. The same molecule returned an inhibition at 25 µg/mL of 49.2% and an inhibition at 50 µg/mL of 57.3%. The 50% inhibitory concentration (IC50) under setting [1] was 41.5 µM. For the same molecule, the IC50 under setting [2] was 41.5 µM.
`O=C(c1ccc(Br)cc1)C1C(c2cc3ccccc3s2)C2CSCN2[C@@]12C(=O)Nc1ccc(Cl)cc12` (stereo partly drawn) [IIl, (3S)-7′-(Benzo[b]thiophen-2-yl)-6′-(4-bromobenzoyl)-5-chloro-3′,6′,7′,7a’-tetrahydro-1′H-spiro[indoline-3,5′-pyrrolo[1,2-c]thiazol]-2-one] returned an inhibition at 1.56 µg/mL of 11.6%, an inhibition at 3.125 µg/mL of 25.6%, an inhibition at 6.25 µg/mL of 34.9% and an inhibition at 12.5 µg/mL of 44.4%. In addition, at 25 µg/mL the inhibition was 56.5% and the inhibition at 50 µg/mL stood at 64.9%. Besides, under setting [1], the IC50 was found to be 29.8 µM. Under setting [2], the half-inhibitory concentration (IC50) is 29.8 µM.
Consider `O=C(c1ccc(Br)cc1)C1C(c2cc3ccccc3s2)C2CSCN2[C@@]12C(=O)Nc1ccccc12` (stereo partly drawn) [IIm, (3S)-7′-(Benzo[b]thiophen-2-yl)-6′-(4-bromobenzoyl)-3′,6′,7′,7a’-tetrahydro-1′H-spiro[indoline-3,5′-pyrrolo[1,2-c]thiazol]-2-one], for which the concentration for half-maximal inhibition (IC50) under setting [1] came out at 41.4 µM.

What is called inhibition is the change of the read-out against control, counted positive when it falls. In general, IC50 refers to the concentration needed to halve the response being measured.
